Values quoted from earlier work as cited in patent US20240000752A1, “MICROSUSPENSION AGAINST PARASITES AND METHOD FOR OBTAINING SAME” (Ipanema Industria de Productos Veterinarios Ltda, priority 2020, published 2024).

Columns and labels:
[1] = system: Ostertagia ostertagi Cooperia pectinata, Cooperia punctata, Trichostrongylus axei, Trichostrongylus colubriformis, Oesophagostomum radiatum, Haemonchus placei …

## CCC[S+]([O-])c1ccc2[nH]c(NC(=O)OC)nc2c1 (stereo not drawn) [albendazole sulfoxide]
other
  pka: 7.8
  solubility in water: low solubility in water

## CO[C@H]1C[C@H](O[C@H]2[C@H](C)O[C@@H](O[C@@H]3/C(C)=C/C[C@@H]4C[C@@H](C[C@]5(C=C[C@H](C)[C@@H](C6CCCCC6)O5)O4)OC(=O)[C@@H]4C=C(C)[C@@H](O)[C@H]5OC/C(=C\C=C\[C@@H]3C)[C@]54O)C[C@@H]2OC)O[C@@H](C)[C@@H]1O [doramectin]
[1]
  efficacy against endoparasites and ectoparasites: effective
